# In PubChem BioAssay (NCI):
#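 Five concentrations, 48 hours, 96-well plates. GI50 = concentration required for 50% inhibition of growth. TGI: total growth inhibition.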
# Columns and labels:
# Test in all cases: growth of human tumour cells (NCI), 48 h
# BT-549 breast = tested on: BT-549 breast
# OVCAR-3 ovarian = tested on: OVCAR-3 ovarian
# HS 578T breast = tested on: HS 578T breast
# SK-MEL-2 melanoma = tested on: SK-MEL-2 melanoma
# IGROV1 ovarian = tested on: IGROV1 ovarian
# SK-OV-3 ovarian = tested on: SK-OV-3 ovarian
# HOP-92 NSCLC = tested on: HOP-92 NSCLC
# M14 melanoma = tested on: M14 melanoma
# A549 NSCLC = tested on: A549 NSCLC
# HCT-116 colon = tested on: HCT-116 colon
# SNB-19 CNS = tested on: SNB-19 CNS
# RPMI-8226 leukemia = tested on: RPMI-8226 leukemia
# KM12 colon = tested on: KM12 colon
# U251 CNS = tested on: U251 CNS
# NCI/ADR-RES ovarian = tested on: NCI/ADR-RES ovarian
# SN12C renal = tested on: SN12C renal
# CAKI-1 renal = tested on: CAKI-1 renal
# CCRF-CEM leukemia = tested on: CCRF-CEM leukemia
# HOP-62 NSCLC = tested on: HOP-62 NSCLC
# 786-0 renal = tested on: 786-0 renal
# NCI-H23 lung = tested on: NCI-H23 lung
# SK-MEL-5 melanoma = tested on: SK-MEL-5 melanoma
# HCT-15 colon = tested on: HCT-15 colon
# SK-MEL-28 melanoma = tested on: SK-MEL-28 melanoma
# OVCAR-8 ovarian = tested on: OVCAR-8 ovarian
# PC-3 prostate = tested on: PC-3 prostate
# NCI-H522 lung = tested on: NCI-H522 lung
# MOLT-4 leukemia = tested on: MOLT-4 leukemia
# UO-31 renal = tested on: UO-31 renal
# HL-60(TB) leukemia = tested on: HL-60(TB) leukemia
# T-47D breast = tested on: T-47D breast
# ACHN renal = tested on: ACHN renal
# UACC-257 melanoma = tested on: UACC-257 melanoma
# MCF7 breast = tested on: MCF7 breast
# EKVX NSCLC = tested on: EKVX NSCLC
# SF-295 CNS = tested on: SF-295 CNS
# K-562 leukemia = tested on: K-562 leukemia
# DU-145 prostate = tested on: DU-145 prostate
# SF-268 CNS = tested on: SF-268 CNS
# COLO 205 colon = tested on: COLO 205 colon
# MALME-3M melanoma = tested on: MALME-3M melanoma
# SR leukemia = tested on: SR leukemia
# HCC-2998 colon = tested on: HCC-2998 colon
# OVCAR-4 ovarian = tested on: OVCAR-4 ovarian
# NCI-H460 lung = tested on: NCI-H460 lung
# SW-620 colon = tested on: SW-620 colon
# HT29 colon = tested on: HT29 colon
smiles,measurement,setting,value
Cc1cc(C(=O)Nc2ncc(Cc3cccc(C(F)(F)F)c3)s2)c2ccccc2n1,GI50,BT-549 breast,3610 nM
same,TGI,BT-549 breast,> 100000 nM
same,GI50,OVCAR-3 ovarian,2630 nM
same,TGI,OVCAR-3 ovarian,> 100000 nM
same,GI50,HS 578T breast,2410 nM
same,TGI,HS 578T breast,> 100000 nM
same,GI50,SK-MEL-2 melanoma,2740 nM
same,TGI,SK-MEL-2 melanoma,> 100000 nM
same,GI50,IGROV1 ovarian,3460 nM
same,TGI,IGROV1 ovarian,> 100000 nM
same,GI50,SK-OV-3 ovarian,4240 nM
same,TGI,SK-OV-3 ovarian,> 100000 nM
same,GI50,HOP-92 NSCLC,2560 nM
same,TGI,HOP-92 NSCLC,> 100000 nM
same,GI50,M14 melanoma,185 nM
same,TGI,M14 melanoma,> 100000 nM
same,GI50,A549 NSCLC,3190 nM
same,TGI,A549 NSCLC,> 100000 nM
same,GI50,HCT-116 colon,1290 nM
same,TGI,HCT-116 colon,> 100000 nM
same,GI50,SNB-19 CNS,3020 nM
same,TGI,SNB-19 CNS,> 100000 nM
same,GI50,RPMI-8226 leukemia,2410 nM
same,TGI,RPMI-8226 leukemia,> 100000 nM
same,GI50,KM12 colon,498 nM
same,TGI,KM12 colon,> 100000 nM
same,GI50,U251 CNS,2920 nM
same,TGI,U251 CNS,> 100000 nM
same,GI50,NCI/ADR-RES ovarian,2060 nM
same,TGI,NCI/ADR-RES ovarian,> 100000 nM
same,GI50,SN12C renal,3620 nM
same,TGI,SN12C renal,> 100000 nM
same,GI50,CAKI-1 renal,2130 nM
same,TGI,CAKI-1 renal,> 100000 nM
same,GI50,CCRF-CEM leukemia,2540 nM
same,TGI,CCRF-CEM leukemia,> 100000 nM
same,GI50,HOP-62 NSCLC,1460 nM
same,TGI,HOP-62 NSCLC,> 100000 nM
same,GI50,786-0 renal,2840 nM
same,TGI,786-0 renal,> 100000 nM
same,GI50,NCI-H23 lung,3900 nM
same,TGI,NCI-H23 lung,> 100000 nM
same,GI50,SK-MEL-5 melanoma,1030 nM
same,TGI,SK-MEL-5 melanoma,> 100000 nM
same,GI50,HCT-15 colon,84 nM
same,TGI,HCT-15 colon,> 100000 nM
same,GI50,SK-MEL-28 melanoma,790 nM
same,TGI,SK-MEL-28 melanoma,> 100000 nM
same,GI50,OVCAR-8 ovarian,3490 nM
same,TGI,OVCAR-8 ovarian,> 100000 nM
same,GI50,PC-3 prostate,2310 nM
same,TGI,PC-3 prostate,> 100000 nM
same,GI50,NCI-H522 lung,2330 nM
same,TGI,NCI-H522 lung,> 100000 nM
same,GI50,MOLT-4 leukemia,2390 nM
same,TGI,MOLT-4 leukemia,> 100000 nM
same,GI50,UO-31 renal,1500 nM
same,TGI,UO-31 renal,> 100000 nM
same,GI50,HL-60(TB) leukemia,2210 nM
same,TGI,HL-60(TB) leukemia,5380 nM
same,GI50,T-47D breast,181 nM
same,TGI,T-47D breast,> 100000 nM
same,GI50,ACHN renal,339 nM
same,TGI,ACHN renal,> 100000 nM
same,GI50,UACC-257 melanoma,1750 nM
same,TGI,UACC-257 melanoma,> 100000 nM
same,GI50,MCF7 breast,579 nM
same,TGI,MCF7 breast,> 100000 nM
same,GI50,EKVX NSCLC,2900 nM
same,TGI,EKVX NSCLC,> 100000 nM
same,GI50,SF-295 CNS,1630 nM
same,TGI,SF-295 CNS,> 100000 nM
same,GI50,K-562 leukemia,45.8 nM
same,TGI,K-562 leukemia,> 100000 nM
same,GI50,DU-145 prostate,3470 nM
same,TGI,DU-145 prostate,> 100000 nM
same,GI50,SF-268 CNS,2630 nM
same,TGI,SF-268 CNS,> 100000 nM
same,GI50,COLO 205 colon,750 nM
same,TGI,COLO 205 colon,> 100000 nM
same,GI50,MALME-3M melanoma,3510 nM
same,TGI,MALME-3M melanoma,> 100000 nM
same,GI50,SR leukemia,2020 nM
same,TGI,SR leukemia,> 100000 nM
same,GI50,HCC-2998 colon,1110 nM
same,TGI,HCC-2998 colon,> 100000 nM
same,GI50,OVCAR-4 ovarian,4020 nM
same,TGI,OVCAR-4 ovarian,> 100000 nM
same,GI50,NCI-H460 lung,1330 nM
same,TGI,NCI-H460 lung,> 100000 nM
same,GI50,SW-620 colon,1210 nM
same,TGI,SW-620 colon,> 100000 nM
same,GI50,HT29 colon,1140 nM
same,TGI,HT29 colon,> 100000 nM
